# System: K. pneumoniae MazEF complex
# Experiment: In vitro assay of MazEF complex disruption by peptides (RNase Alert fluorescence assay)
# Type: biochemical, Klebsiella pneumoniae
# Conditions: 20 μM peptide, 4 μM MazEF complex; 20 mM Tris pH 8.0, 200 mM NaCl; 30 min at 37 °C; RFU of 4 μM MazF = 100%, of 4 μM MazEF ~0%; three independent experiments
# Description: To validate the ribonuclease activity of MazF toxin, an RNase Alert Kit (IDT, Coralville, IA, USA) was used. The principle is as follows. In the normal state, a fluorophore is covalently attached to one end of a synthetic RNA strand and is quenched by a quencher group at the other end of the RNA strand. However, the synthetic RNA is digested and the quencher is released when the ribonuclease interacts with substrates. Then, the released fluorophore emits fluorescence at 520 nm upon excitation at 490 nm. The resulting relative fluorescence units (RFU) were detected using a SPECTRAmax GEMINI XS spectrofluorometer (Molecular Devices, San Jose, CA, USA). All experiments were performed in triplicate.
# In addition to the disruption assay using small molecules, 10 short peptides that mimic the binding region between MazE and MazF were designed based on the tertiary crystal structure of the MazEF complex and purchased from ANYGEN (http://www.anygen.com, accessed on 21 April 2024) (Table 1). Among the peptides tested, six were designed to mimic the region on MazE where it binds to MazF, while the remaining four were designed to mimic the region on MazF where it binds to MazE. This design was chosen to investigate the interactions between MazE and MazF and their respective binding regions. The main principle and process were consistent with those of complex disruption by small molecules, which has been mentioned above. The concentration of the MazEF complex was fixed at 4 μM, and the concentration of competing peptides was 20 μM. Furthermore, all of the proteins and peptides used in this assay were prepared in 20 mM Tris, pH 8.0, and 200 mM NaCl. The MazEF complex was incubated with the peptides for 30 min at 37 °C before fluorescence measurement.
row,Substance,disruption of the MazEF complex (RNase activity)
1,"EYLCDSQGKEML [Peptide F, MazE-mimicking peptide […]; (65–76)]",80−83%
2,"DSQGKE [Peptide A, MazE-mimicking peptide DSQGKE (69–74)]",approximately 65%
3,"YLCDSQGKEML [Peptide E, MazE-mimicking peptide […]; (66–76)]",80−83%

# Same assay, conditions: 20 μM peptide, 4 μM MazEF complex; 30 min at 37 °C
row,Substance,RNase activity compared with the related peptide (in words)
1,"KSLDWKAR [Peptide I, MazF-mimicking peptide KSLDWKAR (79–86)]",dramatic increase in RNase activity
2,"QVKSLD [Peptide H, MazF-mimicking peptide QVKSLD (77–82)]",no significant difference
3,"YLCDSQGKE [Peptide B, MazE-mimicking peptide … (66–74)]",did not exhibit significant differences from Peptide A
4,"KSLD [Peptide G, MazF-mimicking peptide KSLD (79–82)]",no significant difference
5,"QVKSLDWKAR [Peptide J, MazF-mimicking peptide […]; (77–86)]",dramatic increase in RNase activity
6,"EYLCDSQGKE [Peptide C, MazE-mimicking peptide […]; (65–74)]",did not exhibit significant differences from Peptide A
